ChEMBL document CHEMBL4190400, “Identification of Potent Ebola Virus Entry Inhibitors with Suitable Properties for in Vivo Studies” (J Med Chem, 2018)
In brackets after ≈: the same amount, converted by molar mass.

Experiments:
Ebolavirus [1] = assay: Antiviral activity against Ebolavirus isolate Makona infected in human HeLa cells assessed as inhibition of viral infection pretreated for 2 hrs before viral infection and measured after 48 hrs by EboV GP immunostaining based method; format: functional, cell-based; details: Orthoebolavirus
Ebolavirus [2] = assay: Antiviral activity against Ebolavirus isolate Kikwit infected in human HeLa cells assessed as inhibition of viral infection pretreated for 2 hrs before viral infection and measured after 48 hrs by EboV GP immunostaining based method; format: functional, cell-based; details: Orthoebolavirus
Ebolavirus [3] = assay: Antiviral activity against Ebola virus - Mayinga, Zaire, 1976 infected in human HeLa cells assessed as inhibition of viral infection pretreated for 2 hrs before viral infection and measured after 48 hrs by EboV GP immunostaining based method; format: functional, cell-based; details: Orthoebolavirus
Ebolavirus [4] = assay: (§1) Antiviral activity against recombinant VSV pseudotyped Ebolavirus expressing M-GFP infected in African green monkey Vero E6 cells assessed as inhibition of viral infection pre-incubated for 2 hrs before infection and measured after 8 to 12 hrs in presence of 50% NHS by fluorescence microscopic method; format: functional, Vero C1008
[5] = Cmax in mouse at 50 mg/kg, po administered via gavage cotreated with 50 mg/kg ritonavir; format: ADME, organism-based; set-up: dose 50 mg/kg, route oral; details: in vivo
in vitro = details: mouse, plasma
[6] = Tmax in mouse at 50 mg/kg, po administered via gavage cotreated with 50 mg/kg ritonavir; format: ADME, organism-based; details: in vivo
[7] = Half life in mouse liver microsomes at 1 uM after 60 mins in presence of NADPH and ritonavir by LC-MS/MS analysis; format: ADME, microsome; details: with ritonavir (concentration not stated)
[8] = Half life in mouse at 50 mg/kg, po administered via gavage cotreated with 50 mg/kg ritonavir; format: ADME, organism-based; details: in vivo
[9] = Half life in mouse liver microsomes at 1 uM after 60 mins in presence of NADPH by LC-MS/MS analysis; format: ADME, microsome
Ebolavirus [10] = assay: as §1, with “activity against VSV pseudotyped” for “activity against recombinant VSV pseudotyped”, “presence of 10% FBS and 50% NHS” for “presence of 50% NHS”; format: functional; details: Orthoebolavirus, Vero C1008
[11] = Stability of the compound in mouse plasma at 10 uM assessed as compound remaining after 4 hrs by LC-MS/MS analysis; format: ADME, cell-free; details: read-out: Stability
[12] = Clearance in mouse at 50 mg/kg, po administered via gavage cotreated with 50 mg/kg ritonavir; format: ADME, organism-based; details: in vivo
[13] = AUClast in mouse at 50 mg/kg, po administered via gavage cotreated with 50 mg/kg ritonavir; format: ADME, organism-based; set-up: dose 50 mg/kg, route oral, time 0 - last; details: in vivo
[14] = Concentration in mouse plasma at 50 mg/kg, po administered via gavage cotreated with 50 mg/kg ritonavir; format: ADME, organism-based; details: in vivo
[15] = Half life in human liver microsomes at 1 uM after 60 mins in presence of NADPH by LC-MS/MS analysis; format: ADME, microsome
physchem = details: phosphate buffered saline, pH 7.4
[16] = AUClast in mouse at 25 mg/kg, po administered via gavage cotreated with 20 mg/kg ritonavir; format: ADME, organism-based; set-up: dose 25 mg/kg, route oral, time 0 - last; details: in vivo
[17] = Concentration in mouse plasma at 25 mg/kg, po administered via gavage cotreated with 20 mg/kg ritonavir; format: ADME, organism-based; details: in vivo
[18] = Concentration in mouse plasma at 25 mg/kg, po administered via gavage after 12 hrs; format: ADME, organism-based
[19] = Clearance in mouse at 25 mg/kg, po administered via gavage; format: ADME, organism-based; details: in vivo
in vivo = details: mouse, po, 25 mg/kg
[20] = Clearance in mouse at 25 mg/kg, po administered via gavage cotreated with 20 mg/kg ritonavir; format: ADME, organism-based; details: in vivo
[21] = Cmax in mouse at 25 mg/kg, po administered via gavage cotreated with 20 mg/kg ritonavir; format: ADME, organism-based; set-up: dose 25 mg/kg, route oral; details: in vivo
Ebolavirus [22] = assay: Antiviral activity against VSV pseudotyped Ebolavirus expressing M-GFP infected in African green monkey Vero E6 cells assessed as inhibition of viral infection pre-incubated for 2 hrs before infection and measured after 8 to 12 hrs by fluorescence microscopic method; format: functional, Vero C1008; details: Orthoebolavirus, Vero C1008

Structure (SMILES)	EC50 (Ebolavirus [1])	EC50 (Ebolavirus [2])	EC50 (Ebolavirus [3])	IC50 (Ebolavirus [4]; Orthoebolavirus, Vero C1008)	Cmax [5]	fraction unbound at 6 h (in vitro)	Tmax [6]	half-life at 1 µM [7]	half-life [8]	IC50 (Ebolavirus [10])	remaining at 4 h, 10 µM [11]	CL/F [12]	AUC(0-t) [13]	concentration [14]	solubility kinetic (physchem)	other results
CS(=O)(=O)c1ccc(CNc2ccc(Cl)cc2CN2CCN(C(=O)CNC(=O)C3CC34CCC(F)(F)CC4)CC2)cc1 (racemic)	17 nM	35 nM	9 nM	40 nM	–	–	–	–	–	–	–	–	–	–	–	–
[2H]C([2H])(c1cc(Cl)ccc1NCc1ccc(S(C)(=O)=O)cc1)N1CCN(C(=O)CNC(=O)C2CC23CCC(F)(F)CC3)CC1 (single isomer, unassigned; (-))	–	–	–	21 nM	7.4 µM	0.002	7.3 h	1.45 h	1.7 h	109 nM	72%	12.5 mL/min/kg	108 µM·h	5.7 µM	4 µM (≈ 2.5 µg/mL)	half-life at 1 µM [9]: 2 min; half-life at 1 µM [15]: 1 min
CS(=O)(=O)c1ccc(CNc2ccc(Cl)cc2CN2CCN(C(=O)CNC(=O)CC3CCC(F)(F)CC3)CC2)cc1	52 nM	33 nM	12 nM	28 nM	–	–	–	–	–	–	–	–	–	–	–	–
CS(=O)(=O)c1ccc(COc2ccc(Cl)cc2CN2CCN(C(=O)CNC(=O)C3CC34CCC(F)(F)CC4)CC2)cc1 (stereo in doubt; 3-22)	–	–	–	–	10.4 µM	0.024	4 h	> 2 h	3.2 h	93 nM	69%	11.9 mL/min/kg	116 µM·h	4.7 µM	10 µM (≈ 6.24 µg/mL)	IC50 (Ebolavirus [4]; vero c1008): 19 nM
CS(=O)(=O)c1ccc(COc2ccc(Cl)cc2CN2CCN(C(=O)CNC(=O)C3CC34CCC(F)(F)CC4)CC2)cc1 (racemic)	140 nM	420 nM	210 nM	35 nM	–	–	–	–	–	–	–	–	–	–	–	–
[2H]C([2H])(c1cc(Cl)ccc1N)N1CCN(C(=O)CNC(=O)CC2CCC(F)(F)CC2)CC1	–	–	–	1200 nM	–	–	–	> 2 h	–	–	86%	–	–	–	–	AUC(0-t) [16]: 76.8 µM·h; concentration [17]: 1.7 µM; concentration at 12 h [18]: 0.2 µM; CL/F [19]: 49 mL/min/kg; half-life (in vivo): 2.3 h; CL/F [20]: 12.3 mL/min/kg; Cmax [21]: 12 µM; IC50 (Ebolavirus [22]): 347 nM
